Assay results: PubChem BioAssay AID248 (DTP/NCI, 2004)
Where “and” joins values, the source holds several entries; their conditions need not be identical. Equal values may be shown once. Toxic doses and inconclusive results are not listed. No stated cut-off is given here; in the data, active means T/C of 150% or more; inactive means T/C below 125%.

Tested on: L1210 leukemia ip in BDF1 mice, survival T/C
Assay: NCI In Vivo Anticancer Drug Screen. Data for tumor model L1210 Leukemia (intraperitoneal) in B6D2F1 (BDF1) mice
Details: endpoint: mean survival time, higher = longer survival
Method in brief: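 Tumor was transplanted into mice, which were then dosed with test compound or vehicle alone. Survival was recorded for each group, and the treated figure was expressed relative to the control figure.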

[1] = dose: 100.0 mg/kg/injection, schedule: Q04DX002 (ip), vehicle: Klucel (hydroxypropylcellulose) (HPC)
[2] = dose: 200.0 mg/kg/injection, schedule: Q04DX002 (ip), vehicle: Klucel (hydroxypropylcellulose) (HPC)
[3] = dose: 400.0 mg/kg/injection, schedule: Q04DX002 (ip), vehicle: Klucel (hydroxypropylcellulose) (HPC)
[4] = dose: 6.25 mg/kg/injection, schedule: Q01DX009 (ip), vehicle: saline
[5] = dose: 12.5 mg/kg/injection, schedule: Q01DX009 (ip), vehicle: saline
[6] = dose: 50.0 mg/kg/injection, schedule: Q01DX009 (ip), vehicle: saline with Tween-80
[7] = dose: 100.0 mg/kg/injection, schedule: Q01DX001 (ip), vehicle: saline
[8] = dose: 100.0 mg/kg/injection, schedule: Q01DX009 (ip), vehicle: saline with Tween-80
[9] = dose: 200.0 mg/kg/injection, schedule: Q01DX001 (ip), vehicle: saline
[10] = dose: 200.0 mg/kg/injection, schedule: Q01DX009 (ip), vehicle: saline with Tween-80
[11] = dose: 100.0 mg/kg/injection, schedule: Q04DX003 (ip), vehicle: saline with Tween-80
[12] = dose: 200.0 mg/kg/injection, schedule: Q04DX003 (ip), vehicle: saline with Tween-80
[13] = dose: 400.0 mg/kg/injection, schedule: Q04DX003 (ip), vehicle: saline with Tween-80
[14] = dose: 100.0 mg/kg/injection, schedule: Q01DX001 (ip), vehicle: carboxymethylcellulose (CMC)
[15] = dose: 200.0 mg/kg/injection, schedule: Q01DX001 (ip), vehicle: carboxymethylcellulose (CMC)
[16] = dose: 400.0 mg/kg/injection, schedule: Q01DX001 (ip), vehicle: carboxymethylcellulose (CMC)

Measured: T/C

COc1cc(/C=C2\C=Nc3ccccc32)ccc1O
inactive: [1] 97 % of control | [2] 105 % of control | [3] 102 % of control

C1CN2CCC1C1(C2)SSC2(CN3CCC2CC3)S1 (stereo unspecified)
inactive: [4] 107 % of control | dose: 6.25 mg/kg/injection, schedule: Q04DX003 (ip), vehicle: saline 96 % of control | [5] 96 % of control | dose: 12.5 mg/kg/injection, schedule: Q04DX003 (ip), vehicle: saline 107 % of control | dose: 25.0 mg/kg/injection, schedule: Q01DX009 (ip), vehicle: saline 119 % of control | dose: 25.0 mg/kg/injection, schedule: Q04DX003 (ip), vehicle: saline 94 % of control

O=C1CCC(c2ccccc2)c2ccccc21 (stereo unspecified)
inactive: dose: 100.0 mg/kg/injection, schedule: Q01DX001 (ip), vehicle: Klucel (hydroxypropylcellulose) (HPC) 99 % of control | dose: 200.0 mg/kg/injection, schedule: Q01DX001 (ip), vehicle: Klucel (hydroxypropylcellulose) (HPC) 97 % of control | dose: 400.0 mg/kg/injection, schedule: Q01DX001 (ip), vehicle: Klucel (hydroxypropylcellulose) (HPC) 100 % of control

O=C(CC(O)(C(F)(F)F)C(F)(F)F)C(Cl)C(O)(C(F)(F)F)C(F)(F)F (stereo unspecified)
inactive: dose: 25.0 mg/kg/injection, schedule: Q01DX001 (ip), vehicle: other 104 % of control | dose: 50.0 mg/kg/injection, schedule: Q01DX001 (ip), vehicle: other 86 % of control

Nc1cc(Cl)c(S(=O)(=O)O)cc1Cl
inactive: [6] 90 % of control | [7] 95 % of control | [8] 107 % of control | [1] 100 % of control | [9] 86 % of control | [10] 97 % of control | [2] 91 % of control | [3] 88 % of control

ClCCOC(OCCCl)OCCCl
inactive: [8] 105 % of control | [11] 103 % of control | [10] 87 % of control | [12] 104 % of control | [13] 95 % of control

COC(=O)CC1OCC=C2CN3CCC45C6=CC(=O)C(=O)C([N+](=O)[O-])=C6NC4C1C2CC35 (stereo unspecified)
inactive: dose: 5.0 mg/kg/injection, schedule: Q01DX001 (ip), vehicle: saline 97 % of control | dose: 10.0 mg/kg/injection, schedule: Q01DX001 (ip), vehicle: saline 97 % of control

CCCCN(C)c1ccc(N=Nc2cc(Cl)ccc2Cl)cc1
inactive: [11] 98 % of control | [13] 86 % of control

Cc1ccc(NC(=S)N(CCC#N)Cc2ccccc2)cc1C
inactive: [14] 94 % of control | dose: 100.0 mg/kg/injection, schedule: Q01DX009 (ip), vehicle: carboxymethylcellulose (CMC) 93 % of control and 107 % of control | dose: 100.0 mg/kg/injection, schedule: Q04DX002 (ip), vehicle: carboxymethylcellulose (CMC) 98 % of control | dose: 100.0 mg/kg/injection, schedule: Q04DX003 (ip), vehicle: carboxymethylcellulose (CMC) 90 % of control | [15] 100 % of control | dose: 200.0 mg/kg/injection, schedule: Q01DX009 (ip), vehicle: carboxymethylcellulose (CMC) 89 % of control and 91 % of control | dose: 200.0 mg/kg/injection, schedule: Q04DX002 (ip), vehicle: carboxymethylcellulose (CMC) 101 % of control and 88 % of control | dose: 200.0 mg/kg/injection, schedule: Q04DX003 (ip), vehicle: carboxymethylcellulose (CMC) 95 % of control | [16] 90 % of control | dose: 400.0 mg/kg/injection, schedule: Q01DX009 (ip), vehicle: carboxymethylcellulose (CMC) 86 % of control | dose: 400.0 mg/kg/injection, schedule: Q04DX002 (ip), vehicle: carboxymethylcellulose (CMC) 95 % of control and 88 % of control | dose: 400.0 mg/kg/injection, schedule: Q04DX003 (ip), vehicle: carboxymethylcellulose (CMC) 90 % of control

Cn1cnc2cc(N=Cc3ccc(N(CCCl)CCCl)cc3F)ccc21
inactive: [1] 104 % of control | [2] 101 % of control | [3] 97 % of control

O=C(O)CCCC1CCCCc2ccccc21 (stereo unspecified)
inactive: dose: 100.0 mg/kg/injection, schedule: Q04DX003 (ip), vehicle: acetone 103 % of control | dose: 200.0 mg/kg/injection, schedule: Q04DX003 (ip), vehicle: acetone 100 % of control | dose: 400.0 mg/kg/injection, schedule: Q04DX003 (ip), vehicle: acetone 110 % of control

CC1=NN(c2ccccc2)C(=O)C1N=Nc1ccccc1S(=O)(=O)O (stereo unspecified)
inactive: [7] 96 % of control | [9] 94 % of control | dose: 400.0 mg/kg/injection, schedule: Q01DX001 (ip), vehicle: saline 102 % of control

Cc1cccc(C)c1N=Nc1cc[n+]([O-])cc1
inactive: dose: 6.25 mg/kg/injection, schedule: Q04DX003 (ip), vehicle: saline with Tween-80 92 % of control | dose: 12.5 mg/kg/injection, schedule: Q04DX003 (ip), vehicle: saline with Tween-80 95 % of control | dose: 25.0 mg/kg/injection, schedule: Q04DX003 (ip), vehicle: saline with Tween-80 102 % of control and 92 % of control | dose: 50.0 mg/kg/injection, schedule: Q04DX003 (ip), vehicle: saline with Tween-80 100 % of control

CCCc1cc(=O)c2ccccc2n1COC(C)=O
inactive: dose: 50.0 mg/kg/injection, schedule: Q01DX001 (ip), vehicle: carboxymethylcellulose (CMC) 119 % of control | [14] 113 % of control | [15] 113 % of control

S=C(NC1CCCCC1)N1CCC(CCCC2CCN(C(=S)NC3CCCCC3)CC2)CC1
inactive: [8] 95 % of control | [10] 97 % of control | dose: 400.0 mg/kg/injection, schedule: Q01DX009 (ip), vehicle: saline with Tween-80 97 % of control

CC(=O)C1CCCCC1
inactive: [11] 107 % of control | [12] 109 % of control | [13] 96 % of control

[N-]=[N+]=CC(=O)NCC(=O)NN=C(CO)CO
inactive: dose: 180.0 mg/kg/injection, schedule: Q01DX009 (ip), vehicle: water 118 % of control | dose: 265.0 mg/kg/injection, schedule: Q01DX009 (ip), vehicle: water 122 % of control

Cc1ccc(S(=O)(=O)N2C=Cc3ccccc3CC2)cc1
inactive: [14] 107 % of control | [15] 100 % of control | [16] 112 % of control

O=C(COc1ccc(F)cc1)N(CCO)CCO
inactive: [1] 96 % of control | [2] 92 % of control | [3] 114 % of control

c1ccc(C2=C([P+](c3ccccc3)(c3ccccc3)c3ccccc3)CCO2)cc1
inactive: dose: 3.0 mg/kg/injection, schedule: Q04DX003 (ip), vehicle: saline 102 % of control | dose: 3.12 mg/kg/injection, schedule: Q01DX009 (ip), vehicle: saline 117 % of control | dose: 6.0 mg/kg/injection, schedule: Q01DX001 (ip), vehicle: saline 108 % of control | dose: 6.0 mg/kg/injection, schedule: Q04DX003 (ip), vehicle: saline 117 % of control | [4] 109 % of control | dose: 12.0 mg/kg/injection, schedule: Q01DX001 (ip), vehicle: saline 108 % of control | dose: 12.0 mg/kg/injection, schedule: Q04DX003 (ip), vehicle: saline 101 % of control and 107 % of control | [5] 92 % of control | dose: 25.0 mg/kg/injection, schedule: Q01DX001 (ip), vehicle: saline 102 % of control

CC1CC=C(/C=N\NC(=O)c2ccc[n+](C)c2)C(C)O1 (stereo unspecified)
inactive: [6] 96 % of control | [8] 96 % of control | [10] 93 % of control

C=NC
inactive: [7] 105 % of control | dose: 100.0 mg/kg/injection, schedule: Q04DX003 (ip), vehicle: saline 103 % of control

CC(=O)OC1CCC2(C)C(CCC3C2CC(=O)C2(C)C3CC(N3CC3)C2C(C)=O)C1 (stereo unspecified)
inactive: dose: 100.0 mg/kg/injection, schedule: Q01DX001 (sc), vehicle: steriod suspending solution 89 % of control | dose: 200.0 mg/kg/injection, schedule: Q01DX001 (sc), vehicle: steriod suspending solution 99 % of control | dose: 400.0 mg/kg/injection, schedule: Q01DX001 (sc), vehicle: steriod suspending solution 99 % of control

CC(O)c1cccc(NC(=O)Nc2ccc(Cl)c(Cl)c2)c1 (stereo unspecified)
inactive: dose: 100.0 mg/kg/injection, schedule: Q01DX009 (ip), vehicle: Klucel (hydroxypropylcellulose) (HPC) 96 % of control | dose: 200.0 mg/kg/injection, schedule: Q01DX009 (ip), vehicle: Klucel (hydroxypropylcellulose) (HPC) 98 % of control | dose: 400.0 mg/kg/injection, schedule: Q01DX009 (ip), vehicle: Klucel (hydroxypropylcellulose) (HPC) 96 % of control

O=C(OCc1ccccc1CN1CCCCC1)c1ccc(Br)cc1
inactive: dose: 25.0 mg/kg/injection, schedule: Q04DX002 (ip), vehicle: Klucel (hydroxypropylcellulose) (HPC) 115 % of control | dose: 50.0 mg/kg/injection, schedule: Q04DX002 (ip), vehicle: Klucel (hydroxypropylcellulose) (HPC) 109 % of control | [1] 105 % of control
